Tests used:
STING = assay: Dog whole blood (dWB) assay, IFNb secretion by ELISA; format: cell-based; conditions: 4 h incubation at 37° C., % control relative to cGAMP stimulated control, read-out: EC50, cytokine secretion in dog whole blood (dWB) culture system as determined by canine Interferon-beta (IFNb) ELISA
Protocol: In this assay, freshly collected canine blood is incubated with a STING agonist, and interferon beta levels in the supernatant are quantified by ELISA. […] In accordance with the invention, a combination of a high dDSF and low dWB is especially favorable.
For the detection of STING activation in physiological environment dog whole blood (dWB) was stimulated by the cyclic dinucleotide cGAMP or a test compound. Pathway activity was monitored by measuring the IFNb production.
Compounds were delivered as 10 mM DMSO solution, diluted and transferred by using an Echo acoustic dispenser to the 384well assay plate (Greiner #781182), pre-filled with 10 μl 1× HBSS in each well (10× HBSS (+Ca/+Mg), #14065-049, Gibco). Typically, 8 concentrations were used with the highest concentration at 10 μM in the final assay volume followed by approximately 1:4 dilution steps. DMSO concentration was set to 0.1% in the final assay volume. The 384-well assay plate contained 20 test compounds and DMSO in control and cGAMP standard wells. The dog whole blood was collected as Na-Citrate blood (e.g., 3.8% in Monovettes from Sarstedt) and kept at 4° C. overnight until use in the assay. 80 μl of the whole blood samples were transferred to each well of the 384-well assay plates filled with compound/1×HBSS. Blood plates were kept at room temperature for 60 minutes and continuous shaking with 450 rpm, covered with the lid, but not sealed. A 10× cGAMP assay solution was diluted from a 2 mM stock solution in 1×HBSS immediately before use at room temperature. 10 μl of the 10× cGAMP/HBSS were added to the high control wells, whereas HBSS only was added to all compound and low control wells. After covering assay plates with the lid, blood plates were kept for a 4 h incubation at 37° C. in the incubator, without shaking. For the detection of IFNb in dog plasma the ELISA Kit for Canine Interferon Beta (Biotrend #SEA222Ca) was used. Whole blood assay plates were centrifuged at 1000 g for 10 minutes at 8° C. 40 μl of supernatant was transferred with a 96 well pipetting robotics from the 384 well whole blood plate to the corresponding 96 well ELISA plate, pre-filled with […] assay diluent in each well. Plates were sealed with microplate seals and kept at 4° C. overnight again. ELISA plates were brought to room temperature, followed by a 1 h incubation at 37° C. in the incubator. Detection Reagent A working solution was prepared by diluting Detection Reagent A 1:100 in Assay Reagent A. Liquid was then removed from the 96 well ELISA plate to add 100 μL Detection Reagent A working solution to each well. ELISA plates were covered with the plate sealer and incubated for 1 hour at 37° C. in the incubator. The 1× Wash buffer was prepared by diluting the 30× Wash Buffer Concentrate in H2O. Detection Reagent B working solution was prepared by diluting Detection Reagent B 1:100 in Assay Reagent B. The ELISA plates were washed three times with 350 μl wash buffer and afterwards inverted and blotted against absorbent paper to remove any liquid. 100 μL of Detection Reagent B working solution was added to each well of the ELISA plates, which are then covered with the plate sealer and incubated for 30 minutes at 37° C. in the incubator. After incubation the ELISA assay plates were washed five times with 350 μl wash buffer and were again inverted and blotted against absorbent paper to remove any remaining liquid. 90 μL of TMB Substrate was added to each well of the ELISA plates, which were then covered with the plate sealer and incubated for 15 minutes at 37° C. in the incubator. The reaction was stopped by adding 50 μL stop solution and absorbance was measured at 450 nm immediately.
For data evaluation and calculation, % control calculation of each well was based on the mean of high (cGAMP stimulated control) and mean of low (unstimulated control) controls by using the following standard 4 parameter logistic regression formula: […]

dog STING (dSTING) = assay: Dog differential scanning fluorimetry (DSF) assay, thermal shift of dog STING protein; format: binding; conditions: 100 μM compound, 3 μM recombinant dog STING (residues 149 to 375), 5× SYPRO Orange, 2% DMSO
Chain of dog STING (dSTING) (as listed by the source): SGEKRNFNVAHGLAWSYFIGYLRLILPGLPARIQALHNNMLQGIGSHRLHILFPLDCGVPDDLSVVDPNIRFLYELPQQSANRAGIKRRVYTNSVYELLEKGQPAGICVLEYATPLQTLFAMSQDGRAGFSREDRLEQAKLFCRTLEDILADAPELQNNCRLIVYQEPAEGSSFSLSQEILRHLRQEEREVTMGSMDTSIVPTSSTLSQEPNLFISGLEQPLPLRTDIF
Source text: The protein used for the biophysical experiments was a recombinant dog STING protein comprising its cytosolic cGAMP binding ectodomain. A codon optimized DNA sequence (for expression in Escherichia coli) encoding amino acid residues 149 to 375 of dog STING was synthesized by GeneArt (Regensburg, Germany) and inserted into a pET17b E. coli expression vector. The protein construct encodes an N-terminal 8× His-tag followed by tobacco etch virus protease (TEV) cleavage site and the above STING gene sequence. The resulting protein sequence for the used dog STING protein (SEQ ID No. 1) is listed below:
For expression of the above recombinant dog STING, the construct was transformed into E. coli BL21 DE3 strain and grown in shake flasks in LB-medium at 15° C. Expression was induced by addition of isopropyl β-D-1-thiogalactopyranoside to a final concentration of 1 mM and cultures shaken overnight. Cell pellets were centrifuged and stored at −70° C. until further use. Protein was purified by cell thawing in lysis buffer (20 mM TRIS-HCl, pH 8, 500 mM NaCl, 1 mM DTT, 0.5 mg/ml lysozyme, Complete Protease Inhibitor (Roche) and DNase (Roche)), followed by metal affinity purification using Ni-NTA resins and elution buffer consisting of 20 mM TRIS-HCl, pH 8, 500 mM NaCl, 1 mM DTT, 300 mM imidazole. Cleavage of the His-Tag using TEV-protease took place during dialysis in size exclusion buffer (20 mM TRIS-HCl, pH 8, 100 mM NaCl, 1 mM DTT) over night. To further purify the target protein a reverse Nickel affinity column was used and the flow through was applied to a size exclusion chromatography. The peak fraction was collected and concentrated to 5 mg/mL.
Dye fluorescence is quenched in aqueous environment and increases upon association of the dye with the hydrophobic parts of the unfolding protein. […] The inflection point of the curve represents the “melting” temperature of the protein (Tm) which is calculated numerically using the Boltzmann equation.
The thermal stability of the dog STING protein was measured in assay buffer containing 20 mM Tris, 150 mM NaCl at pH7.5. The assay uses 384-Well qPCR Plates (Catalog #781358, BRAND), Microseal®‘B’ Adhesive Seals for PCR Plates (Catalog #MSB-1001, BIO-RAD) and was run on a CFX384 Real-Time System (Bio-Rad). A DMSO stock solution of SYPRO orange (SIGMA 55692-500UL) was prepared. Compound stock solutions (10 mM in DMSO) were diluted 1:2 in DMSO to an intermediate compound concentration of 5 mM and then further diluted 1:40 in assay buffer resulting in a compound concentration of 125 μM and 2.5% DMSO. Fluorescent dye stock solution (5000× SYPRO Orange) was then mixed with target protein and buffer to a concentration of 15 μM Protein and 25× SYPRO Orange. 2 μl of this protein-dye-mixture was added to 8 μl compound solution. Final volume was 10 μL. 3-6 well positions were used as negative control (protein with 2% DMSO). The plates were prepared for duplicate measurement and centrifuged for 2 min at 1000 g. In the measurement, 160 cycles of 0.5° C. were used (temperature ramp 15 s/cycle, 15° C. to 95° C.).
Final Assay concentrations for compound characterization were 100 μM compound, 3 μM target protein, 5× SYPRO Orange, and 2% DMSO in 10 μl. All dispensing steps were performed using a HamiltonStar pipetting robot (Hamilton).
Dissociation curves were processed in Bio-Rad CFX Manager. Peak type was set to “negative”. Compound codes for screen were assigned in the plate layout.
Two replicates of TM measurements were averaged, and the standard deviation was calculated. In cases of SD>1.5° C. the measurement was repeated.
The melting point (Tm) obtained for STING protein alone was subtracted from T obtained for protein incubated with ligand to generate ΔTm values.

In the case of “(1S,4R,5R)-2-(5-{2″,7-dimethyl-1H,2″H-[3,4″-biindazol]-1-yl}pyridin-2-yl)-2-azabicyclo[2.2.1]heptane-5-carboxylic acid and 1R,4S,5S)-2-(5-{2′,7-dimethyl-1H,2′H-[3,4′-biindazol]-1-yl}pyridin-2-yl)-2-azabicyclo[2.2.1]heptane-5-carboxylic acid [Example 5]”, the EC50 (STING) is reported as 0.529 µM and the “Delta TM, interaction with dog STING as determined by DSF (dDSF)” value (dog STING (dSTING)) is reported as 33.5 °C.

Reference: patent US20240174642A1, “HETEROCYCLIC COMPOUNDS CAPABLE OF ACTIVATING STING” (Boehringer Ingelheim International GmbH, priority 2022, published 2024)
